According to PubChem BioAssay (NCI):
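Growth conditions: 96-well plates. Treatment: test compound, 48 hours, 5 concentrations. Analysis: linear interpolation between bracketing concentrations; unreached endpoints set to highest concentration. GI50 marks 50% less growth. Definition used: TGI = concentration required for complete inhibition of growth.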

Legend:
Assay in all cases: inhibition of tumour cell growth, NCI panel, 48 h
HOP-92 NSCLC = system: HOP-92 NSCLC
COLO 205 colon = system: COLO 205 colon
PC-3 prostate = system: PC-3 prostate
ACHN renal = system: ACHN renal
SK-MEL-28 melanoma = system: SK-MEL-28 melanoma
LOX IMVI melanoma = system: LOX IMVI melanoma
CCRF-CEM leukemia = system: CCRF-CEM leukemia
UACC-257 melanoma = system: UACC-257 melanoma
NCI-H460 lung = system: NCI-H460 lung
NCI-H522 lung = system: NCI-H522 lung
OVCAR-8 ovarian = system: OVCAR-8 ovarian
MCF7 breast = system: MCF7 breast
HOP-62 NSCLC = system: HOP-62 NSCLC
SF-295 CNS = system: SF-295 CNS
SNB-19 CNS = system: SNB-19 CNS
K-562 leukemia = system: K-562 leukemia
UO-31 renal = system: UO-31 renal
M14 melanoma = system: M14 melanoma
SF-539 CNS = system: SF-539 CNS
OVCAR-4 ovarian = system: OVCAR-4 ovarian
IGROV1 ovarian = system: IGROV1 ovarian
UACC-62 melanoma = system: UACC-62 melanoma
SK-MEL-5 melanoma = system: SK-MEL-5 melanoma
786-0 renal = system: 786-0 renal
SK-OV-3 ovarian = system: SK-OV-3 ovarian
SR leukemia = system: SR leukemia
MOLT-4 leukemia = system: MOLT-4 leukemia
HCT-15 colon = system: HCT-15 colon
CAKI-1 renal = system: CAKI-1 renal
OVCAR-3 ovarian = system: OVCAR-3 ovarian
HL-60(TB) leukemia = system: HL-60(TB) leukemia
A549 NSCLC = system: A549 NSCLC
DU-145 prostate = system: DU-145 prostate
OVCAR-5 ovarian = system: OVCAR-5 ovarian
EKVX NSCLC = system: EKVX NSCLC
MALME-3M melanoma = system: MALME-3M melanoma
NCI/ADR-RES ovarian = system: NCI/ADR-RES ovarian
SN12C renal = system: SN12C renal
U251 CNS = system: U251 CNS
NCI-H23 lung = system: NCI-H23 lung
TK-10 renal = system: TK-10 renal
SF-268 CNS = system: SF-268 CNS
NCI-H226 lung = system: NCI-H226 lung
T-47D breast = system: T-47D breast
KM12 colon = system: KM12 colon
SNB-75 CNS = system: SNB-75 CNS
SK-MEL-2 melanoma = system: SK-MEL-2 melanoma
HCC-2998 colon = system: HCC-2998 colon
SW-620 colon = system: SW-620 colon
HS 578T breast = system: HS 578T breast
HCT-116 colon = system: HCT-116 colon
MDA-MB-231 breast = system: MDA-MB-231 breast
A498 renal = system: A498 renal
MDA-MB-435 = system: MDA-MB-435
BT-549 breast = system: BT-549 breast
HT29 colon = system: HT29 colon

CC(Nc1c(C#N)cnc2ccc(-c3cncc(O)c3)cc12)c1ccccc1 (configuration not stated) was tested, and the GI50 (HOP-92 NSCLC) was 0.409 µM, the TGI (HOP-92 NSCLC) was 6.02 µM and the GI50 (COLO 205 colon) was 14.9 µM. It also gave a TGI (COLO 205 colon) of 36.1 µM, a GI50 (PC-3 prostate) of 1.65 µM and a TGI (PC-3 prostate) greater than 100 µM. For the same compound, the GI50 (ACHN renal) was 1.4 µM, the TGI (ACHN renal) was 10.7 µM and the GI50 (SK-MEL-28 melanoma) was 1.86 µM. The TGI (SK-MEL-28 melanoma) was 10.8 µM, the GI50 (LOX IMVI melanoma) was 1.31 µM and the TGI (LOX IMVI melanoma) was 8.51 µM. It also gave a GI50 (CCRF-CEM leukemia) of 2.4 µM, a TGI (CCRF-CEM leukemia) greater than 100 µM and a GI50 (UACC-257 melanoma) of 4.32 µM. For the same compound, the TGI (UACC-257 melanoma) was 45.6 µM, the GI50 (NCI-H460 lung) was 2.57 µM and the TGI (NCI-H460 lung) was 11.4 µM. It also gave a GI50 (NCI-H522 lung) of 2.31 µM, a TGI (NCI-H522 lung) of 13.5 µM and a GI50 (OVCAR-8 ovarian) of 1.83 µM. The TGI (OVCAR-8 ovarian) was 15.4 µM, the GI50 (MCF7 breast) was 1.91 µM and the TGI (MCF7 breast) was 10.2 µM. The GI50 (HOP-62 NSCLC) was 2.39 µM, the TGI (HOP-62 NSCLC) was 16 µM and the GI50 (SF-295 CNS) was 2.87 µM. The TGI (SF-295 CNS) was 11.7 µM, the GI50 (SNB-19 CNS) was 1.9 µM and the TGI (SNB-19 CNS) was 7.66 µM. The GI50 (K-562 leukemia) was 2.51 µM, the TGI (K-562 leukemia) was greater than 100 µM and the GI50 (UO-31 renal) was 0.408 µM. For the same compound, the TGI (UO-31 renal) was 5.61 µM, the GI50 (M14 melanoma) was 2.08 µM and the TGI (M14 melanoma) was 11.6 µM. For the same compound, the GI50 (SF-539 CNS) was 2.14 µM, the TGI (SF-539 CNS) was 11 µM and the GI50 (OVCAR-4 ovarian) was 1.59 µM. It also gave a TGI (OVCAR-4 ovarian) of 9.49 µM, a GI50 (IGROV1 ovarian) of 0.948 µM and a TGI (IGROV1 ovarian) of 3.91 µM. It also gave a GI50 (UACC-62 melanoma) of 1.7 µM, a TGI (UACC-62 melanoma) of 4.16 µM and a GI50 (SK-MEL-5 melanoma) of 1.24 µM. It also gave a TGI (SK-MEL-5 melanoma) of 2.57 µM, a GI50 (786-0 renal) of 2.74 µM and a TGI (786-0 renal) of 10.4 µM. For the same compound, the GI50 (SK-OV-3 ovarian) was 3.38 µM, the TGI (SK-OV-3 ovarian) was 10.7 µM and the GI50 (SR leukemia) was 2.26 µM. It also gave a TGI (SR leukemia) greater than 100 µM, a GI50 (MOLT-4 leukemia) of 2.11 µM and a TGI (MOLT-4 leukemia) greater than 100 µM. It also gave a GI50 (HCT-15 colon) of 1.69 µM, a TGI (HCT-15 colon) of 11.5 µM and a GI50 (CAKI-1 renal) of 2.24 µM. It also gave a TGI (CAKI-1 renal) of 13.5 µM, a GI50 (OVCAR-3 ovarian) of 1.05 µM and a TGI (OVCAR-3 ovarian) of 5.84 µM. The GI50 (HL-60(TB) leukemia) was 4.22 µM, the TGI (HL-60(TB) leukemia) was greater than 100 µM and the GI50 (A549 NSCLC) was 3.57 µM. For the same compound, the TGI (A549 NSCLC) was 47.3 µM, the GI50 (DU-145 prostate) was 1.48 µM and the TGI (DU-145 prostate) was 10.6 µM. The GI50 (OVCAR-5 ovarian) was 4.3 µM, the TGI (OVCAR-5 ovarian) was 30.7 µM and the GI50 (EKVX NSCLC) was 2.07 µM. It also gave a TGI (EKVX NSCLC) of 12.6 µM, a GI50 (MALME-3M melanoma) of 0.407 µM and a TGI (MALME-3M melanoma) of 3.4 µM. It also gave a GI50 (NCI/ADR-RES ovarian) of 3.36 µM, a TGI (NCI/ADR-RES ovarian) of 23.5 µM and a GI50 (SN12C renal) of 0.721 µM. The TGI (SN12C renal) was 6.68 µM, the GI50 (U251 CNS) was 1.88 µM and the TGI (U251 CNS) was 17.1 µM. The GI50 (NCI-H23 lung) was 1.86 µM, the TGI (NCI-H23 lung) was 7.88 µM and the GI50 (TK-10 renal) was 4.45 µM. The TGI (TK-10 renal) was 50 µM, the GI50 (SF-268 CNS) was 1.99 µM and the TGI (SF-268 CNS) was 12 µM. It also gave a GI50 (NCI-H226 lung) of 1.99 µM, a TGI (NCI-H226 lung) of 13.2 µM and a GI50 (T-47D breast) of 1.68 µM. For the same compound, the TGI (T-47D breast) was 13.8 µM, the GI50 (KM12 colon) was 3.09 µM and the TGI (KM12 colon) was 12.2 µM. The GI50 (SNB-75 CNS) was 0.961 µM, the TGI (SNB-75 CNS) was 17.6 µM and the GI50 (SK-MEL-2 melanoma) was 2.03 µM. For the same compound, the TGI (SK-MEL-2 melanoma) was 6.44 µM, the GI50 (HCC-2998 colon) was 3.73 µM and the TGI (HCC-2998 colon) was 14.8 µM. It also gave a GI50 (SW-620 colon) of 3.56 µM, a TGI (SW-620 colon) of 11.4 µM and a GI50 (HS 578T breast) of 1.08 µM. For the same compound, the TGI (HS 578T breast) was 4.82 µM, the GI50 (HCT-116 colon) was 2.4 µM and the TGI (HCT-116 colon) was 12.4 µM. The GI50 (MDA-MB-231 breast) was 1.67 µM, the TGI (MDA-MB-231 breast) was 11.9 µM and the GI50 (A498 renal) was 2.72 µM. The TGI (A498 renal) was 18 µM, the GI50 (MDA-MB-435) was 2.94 µM and the TGI (MDA-MB-435) was 15.5 µM. For the same compound, the GI50 (BT-549 breast) was 0.547 µM, the TGI (BT-549 breast) was 4.54 µM and the GI50 (HT29 colon) was 18.1 µM. It also gave a TGI (HT29 colon) greater than 100 µM.
